Drawing on PubChem BioAssay (NCI), this text covers TGI and GI50 for 24 compounds.

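How tested: cells in 96-well plates exposed to compound for 48 hours at five concentrations. Abbreviation: GI50, concentration required for 50% inhibition of growth. Definition used: TGI = concentration required for complete inhibition of growth.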

The test system of one experiment is SK-MEL-5 melanoma. The experiment in a line: inhibition of tumour cell growth, NCI panel, 48 h.
On to `COc1cccc(/C=C2\CCC(C)(CN(C)C)C2=O)c1` (configuration not stated), for which the TGI was greater than 100 µM.

On to `CCN(CC)CCNC(=O)c1cn2ncnc(Oc3ccc(NC(=O)Nc4ccc(Cl)c(C(F)(F)F)c4)c(F)c3)c2c1C`, for which the GI50 was 1.75 µM and the TGI amounted to 3.15 µM.

Consider `Cl[Si]1(Cl)Oc2ccccc2O[Si](Cl)(Cl)Oc2ccccc2O1`, for which the TGI stood at 27 µM.

`C=CCC1[C@@H](C(C)(C)C(C(C)=O)C(=O)C(=O)OC)OC(C(C)(C)C)N1C(=O)OC` (some centres not stated): the TGI was greater than 100 µM.

Compound `CCOC(=O)/C(=C/c1cccc(OC)c1)N(CC)CC` had a TGI greater than 100 µM.

The compound `C=CCOC(=O)CC[N+]1=CCC(c2ccccc2)(c2ccccc2)O1` registered a TGI greater than 100 µM.

With `Cc1c(C(=O)CSc2nc3ccccc3c(=O)n2-c2ccccc2)c(=O)n(-c2ccccc2)n1C`, the TGI was greater than 100 µM.

Consider `C#CCC(N)(CO)C(=O)O` (configuration not stated), for which the TGI was greater than 100 µM.

Turning to `COc1cc2cnc3c4ccccc4ccc3c2cc1OC`, the TGI was greater than 100 µM.

On to `O=C(c1ccc2ccccc2c1)c1c(C(F)(F)F)n([O-])c2ccc(Cl)cc2[n+]1=O`, for which the GI50 was 1.36 µM and the TGI amounted to 2.65 µM.

In the case of `O=c1ncccn1C1C=C(CO)C(O)C1O` (configuration not stated), the TGI is greater than 50 µM.

With `CCN(CC)CC(=O)N1CCc2c([nH]c3ccccc23)C1c1cccnc1` (configuration not stated), the TGI is greater than 100 µM.

`CCOC1Oc2ccccc2-c2oc(=O)c(Sc3ccc(C)cc3)cc21` (configuration not stated): the GI50 was 26 µM and the TGI was 95.3 µM.

For `CCSc1nc(N)c2cn[nH]c2n1`, the GI50 was 18.5 µM and the TGI is 43.6 µM.

As to `N=S(c1ccccc1)c1ccccc1[N+](=O)[O-]` (configuration not stated), the TGI worked out at 28.5 µM.

Regarding `Cc1ccc(S(=O)(=O)N/N=C(\c2nc3ccc([N+](=O)[O-])cc3[nH]c2=O)C(O)c2ccccc2Cl)cc1` (configuration not stated), the TGI was greater than 100 µM.

With `O=c1c2c3c(sc2n2c(-c4cc(-c5ccccc5)nn4-c4ccccc4)nnc2n1Cc1ccccc1)CCCC3`, the GI50 is greater than 100 µM and the TGI was greater than 100 µM.

With `C[C@H]1[C@H](C)CC[C@]2(C(=O)NCCNCCN)CC[C@]3(C)C(=CC[C@@H]4[C@@]5(C)CCC(=O)C(C)(C)[C@@H]5CC[C@]43C)[C@H]12`, the GI50 is 1.8 µM and the TGI is 3.23 µM.

For `COc1ccc(CC(C)C(C)Cc2ccc(OC)c(OC)c2)cc1OC` (configuration not stated), the GI50 is 112 µM and the TGI is greater than 1400 µM.

As to `O=C1C2=C(c3ccccc31)C(c1ccccc1Cl)N1C(=O)CCSC1=N2` (configuration not stated), the TGI was greater than 100 µM.

With `Cn1c2ccccc2c2c(=O)c3ccccc3[nH]c21`, the GI50 was 42.9 µM and the TGI is greater than 100 µM.

In another experiment the test system is RPMI-8226 leukemia. The experiment in a line: inhibition of tumour cell growth, NCI panel, 48 h.
As to `CC1(c2ccccc2)CC(c2ccccc2)=NO1` (configuration not stated), the TGI is greater than 100 µM.

Compound `COc1cccc(/C=C2\CCC(C)(CN(C)C)C2=O)c1` (configuration not stated) came in with a TGI of 68.1 µM.

As for `Cl[Si]1(Cl)Oc2ccccc2O[Si](Cl)(Cl)Oc2ccccc2O1`, the TGI is greater than 100 µM.

For the compound `CCOC(=O)C(=O)Nc1ccccc1C(F)(F)F`, the TGI is greater than 100 µM.

The compound `CCOC(=O)/C(=C/c1cccc(OC)c1)N(CC)CC` showed a TGI greater than 100 µM.

`Cc1c(C(=O)CSc2nc3ccccc3c(=O)n2-c2ccccc2)c(=O)n(-c2ccccc2)n1C` displayed a TGI greater than 100 µM.

On to `c1ccc(Cn2cnc3ccc(-c4nc(-c5ccc6c(c5)ncn6C5CCCCC5)cn5ccnc45)cc32)cc1`, for which the GI50 was 1.15 µM and the TGI amounted to 4.5 µM.

Turning to `C#CCC(N)(CO)C(=O)O` (configuration not stated), the TGI is greater than 100 µM.

On to `COc1cc2cnc3c4ccccc4ccc3c2cc1OC`, for which the TGI is greater than 100 µM.

As to `O=C(c1ccc2ccccc2c1)c1c(C(F)(F)F)n([O-])c2ccc(Cl)cc2[n+]1=O`, the GI50 was 0.373 µM and the TGI worked out at 1.66 µM.

Take `O=c1ncccn1C1C=C(CO)C(O)C1O` (configuration not stated): the TGI is greater than 50 µM.

`CCN(CC)CC(=O)N1CCc2c([nH]c3ccccc23)C1c1cccnc1` (configuration not stated) came in with a TGI greater than 100 µM.

`CCOC1Oc2ccccc2-c2oc(=O)c(Sc3ccc(C)cc3)cc21` (configuration not stated): the GI50 is 9.66 µM and the TGI was 35.5 µM.

As to `CCSc1nc(N)c2cn[nH]c2n1`, the GI50 is 21.3 µM and the TGI was 49.1 µM.

As for `N=S(c1ccccc1)c1ccccc1[N+](=O)[O-]` (configuration not stated), the TGI was 54.6 µM.

In turn, `Cc1ccc(S(=O)(=O)N/N=C(\c2nc3ccc([N+](=O)[O-])cc3[nH]c2=O)C(O)c2ccccc2Cl)cc1` (configuration not stated) had a TGI greater than 100 µM.

Consider `COc1ccc(CC(C)C(C)Cc2ccc(OC)c(OC)c2)cc1OC` (configuration not stated), for which the GI50 is 96.7 µM and the TGI is greater than 1400 µM.

Compound `O=C1C2=C(c3ccccc31)C(c1ccccc1Cl)N1C(=O)CCSC1=N2` (configuration not stated) had a TGI greater than 100 µM.

Consider `Cn1c2ccccc2c2c(=O)c3ccccc3[nH]c21`, for which the GI50 is 29.6 µM and the TGI was determined as 91.7 µM.

The subject of the next experiment is NCI-H23 lung. The experiment can be described thus: inhibition of tumour cell growth, NCI panel, 48 h.
With `CC1(c2ccccc2)CC(c2ccccc2)=NO1` (configuration not stated), the TGI is greater than 100 µM.

Regarding `COc1cccc(/C=C2\CCC(C)(CN(C)C)C2=O)c1` (configuration not stated), the TGI is greater than 100 µM.

Consider `CCN(CC)CCNC(=O)c1cn2ncnc(Oc3ccc(NC(=O)Nc4ccc(Cl)c(C(F)(F)F)c4)c(F)c3)c2c1C`, for which the GI50 is 1620 nM and the TGI worked out at 3.17 µM.

In turn, `Cl[Si]1(Cl)Oc2ccccc2O[Si](Cl)(Cl)Oc2ccccc2O1` came in with a TGI of 84.6 µM.

In the case of `C=CCC1[C@@H](C(C)(C)C(C(C)=O)C(=O)C(=O)OC)OC(C(C)(C)C)N1C(=O)OC` (some centres not stated), the TGI is greater than 100 µM.

In the case of `CCOC(=O)C(=O)Nc1ccccc1C(F)(F)F`, the TGI is greater than 100 µM.

On to `CCOC(=O)/C(=C/c1cccc(OC)c1)N(CC)CC`, for which the TGI is greater than 100 µM.

Regarding `C=CCOC(=O)CC[N+]1=CCC(c2ccccc2)(c2ccccc2)O1`, the TGI is greater than 100 µM.

Compound `Cc1c(C(=O)CSc2nc3ccccc3c(=O)n2-c2ccccc2)c(=O)n(-c2ccccc2)n1C` returned a TGI greater than 100 µM.

On to `c1ccc(Cn2cnc3ccc(-c4nc(-c5ccc6c(c5)ncn6C5CCCCC5)cn5ccnc45)cc32)cc1`, for which the GI50 was 1880 nM and the TGI stood at 4.49 µM.

Regarding `C#CCC(N)(CO)C(=O)O` (configuration not stated), the TGI is greater than 100 µM.
